The compounds below were run against Mutant B-Raf (V600E) enzyme (MT B-Raf) (Homo sapiens, UniProt P15056, V600E) (assay: biochemical). Conditions: B-Raf Alpha screen comparable to the described assay; phosphorylation of biotinylated HIS-MEK-AVI; results may be an average of two or more results.
Mutant B-Raf (V600E) enzyme (MT B-Raf), sequence (P15056 whole entry V600E): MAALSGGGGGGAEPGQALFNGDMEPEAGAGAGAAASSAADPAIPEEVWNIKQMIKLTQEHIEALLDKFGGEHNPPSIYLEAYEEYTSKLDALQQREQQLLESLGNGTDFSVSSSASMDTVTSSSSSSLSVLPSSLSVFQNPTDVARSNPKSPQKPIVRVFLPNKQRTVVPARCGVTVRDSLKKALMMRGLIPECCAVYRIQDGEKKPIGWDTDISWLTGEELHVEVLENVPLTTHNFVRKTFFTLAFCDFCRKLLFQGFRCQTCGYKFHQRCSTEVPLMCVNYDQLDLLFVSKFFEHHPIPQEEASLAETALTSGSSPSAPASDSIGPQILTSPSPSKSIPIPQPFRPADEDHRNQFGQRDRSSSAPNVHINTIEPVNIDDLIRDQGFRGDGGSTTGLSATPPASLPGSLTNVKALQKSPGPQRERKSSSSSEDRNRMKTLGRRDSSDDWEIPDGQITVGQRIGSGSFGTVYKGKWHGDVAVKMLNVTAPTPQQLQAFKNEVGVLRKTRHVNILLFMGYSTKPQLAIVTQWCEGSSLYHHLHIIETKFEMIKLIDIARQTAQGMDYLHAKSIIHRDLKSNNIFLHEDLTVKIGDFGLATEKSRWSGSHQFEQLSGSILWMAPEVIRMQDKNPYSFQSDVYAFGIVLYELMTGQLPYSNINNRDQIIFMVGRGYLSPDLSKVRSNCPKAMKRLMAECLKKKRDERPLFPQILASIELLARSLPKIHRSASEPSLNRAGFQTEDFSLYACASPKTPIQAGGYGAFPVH
CN(C)CCCNC(=O)c1ccc(Nc2ncc3cc(-c4ccncc4)ccc3n2)cc1 [Example 31, N-[3-(Dimethylamino)propyl]-4-[(6-pyridin-4-ylquinazolin-2-yl)amino]benzamide] gave an IC50 of 82 nM. In the case of COc1cc(Nc2ncc3cc(-c4ccncc4)ccc3n2)cc(C(F)(F)F)c1 [Example 101, N-[3-Methoxy-5-(trifluoromethyl)phenyl]-6-pyridin-4-ylquinazolin-2-amine], the IC50 is reported as 1700 nM. In the case of CN1CCCC1CCNCc1ccc(Nc2ncc3cc(-c4ccncc4)ccc3n2)cc1 (centres unmarked) [Example 72, N-[4-({[2-(1-Methylpyrrolidin-2-yl)ethyl]amino}methyl)phenyl]-6-pyridin-4-ylquinazolin-2-amine], the IC50 is reported as 260 nM. For CC(C)(C)OC(=O)NCCNC(=O)c1ccc(Nc2ncc3cc(-c4ccncc4)ccc3n2)cc1 [Example 25, tert-Butyl [2-({4-[(6-pyridin-4-ylquinazolin-2-yl)amino]benzoyl}amino)ethyl]carbamate], the IC50 was 390 nM. For CC(c1ccc(Nc2ncc3cc(-c4ccncc4)ccc3n2)cc1)N(C)C (single isomer, unassigned) [Example 139], the IC50 was 36 nM. CC(c1ccc(Nc2ncc3cc(-c4ccncc4)ccc3n2)cc1)N(C)CCO (centres unmarked) [Example 134] was tested, and the IC50 was 35 nM. FC(F)(F)Oc1ccc(Nc2ncc3cc(-c4ccncc4)ccc3n2)cc1 [Example 99, 6-Pyridin-4-yl-N-[4-(trifluoromethoxy)phenyl]quinazolin-2-amine] gave an IC50 of 1100 nM. For CCN(CCO)Cc1ccc(Nc2ncc3cc(-c4ccncc4)ccc3n2)cc1 [Example 77, 2-(Ethyl{4-[(6-pyridin-4-ylquinazolin-2-yl)amino]benzyl}amino)ethanol], the IC50 was 99 nM. COCCCNC(C)c1ccc(Nc2ncc3cc(-c4ccncc4)ccc3n2)cc1 (centres unmarked) [Example 55, N-(4-{1-[(3-Methoxypropyl)amino]ethyl}phenyl)-6-pyridin-4-ylquinazolin-2-amine] was tested, and the IC50 was 22 nM. Compound c1cc(-c2ccc3nc(Nc4ccc(N5CCCCC5)cc4)ncc3c2)ccn1 [Example 89, N-(4-Piperidin-1-ylphenyl)-6-pyridin-4-ylquinazolin-2-amine] has an IC50 of 280 nM. CCCCNS(=O)(=O)c1cccc(Nc2ncc3cc(-c4ccncc4)ccc3n2)c1 [Example 84, N-Butyl-3-[(6-pyridin-4-ylquinazolin-2-yl)amino]benzenesulfonamide] was tested, and the IC50 was 820 nM. Work on CC(NCC1CC1)c1ccc(Nc2ncc3cc(-c4ccncc4)ccc3n2)cc1 (centres unmarked) [Example 136, N-(4-{1-[(Cyclopropylmethyl)amino]ethyl}phenyl)-6-pyridin-4-ylquinazolin-2-amine] yielded an IC50 of 37 nM. Work on CCOc1ccc(Nc2ncc3cc(-c4ccncc4)ccc3n2)cc1 [Example 97, N-(4-Ethoxyphenyl)-6-pyridin-4-ylquinazolin-2-amine] yielded an IC50 of 450 nM. O=C(NCCO)c1ccc(Nc2ncc3cc(-c4ccncc4)ccc3n2)cc1 [Example 7, N-(2-Hydroxyethyl)-4-[(6-pyridin-4-ylquinazolin-2-yl)amino]benzamide] showed an IC50 of 140 nM. O=C(NCCc1ccccn1)c1ccc(Nc2ncc3cc(-c4ccncc4)ccc3n2)cc1 [Example 20, N-(2-Pyridin-2-ylethyl)-4-[(6-pyridin-4-ylquinazolin-2-yl)amino]benzamide] was tested, and the IC50 was 250 nM. With CCN(CCO)c1ccc(Nc2ncc3cc(-c4ccncc4)ccc3n2)cc1 [Example 92, 2-(Ethyl{4-[(6-pyridin-4-ylquinazolin-2-yl)amino]phenyl}amino)ethanol] the IC50 was 92 nM. Work on CC(C)Oc1cccc(Nc2ncc3cc(-c4ccncc4)ccc3n2)c1 [Example 86, N-(3-Isopropoxyphenyl)-6-pyridin-4-ylquinazolin-2-amine] yielded an IC50 of 1500 nM. FC(F)(F)c1cccc(Nc2ncc3cc(-c4ccncc4)ccc3n2)c1 [Example 82, 6-Pyridin-4-yl-N-[3-(trifluoromethyl)phenyl]quinazolin-2-amine] gave an IC50 of 3100 nM. With CN1CCN(C(=O)c2ccc(Nc3ncc4cc(-c5ccncc5)ccc4n3)cc2)CC1 [Example 120] the IC50 was 56 nM. Compound O=C(NCCCn1ccnc1)c1ccc(Nc2ncc3cc(-c4ccncc4)ccc3n2)cc1 [Example 35, N-[3-(1H-Imidazol-1-yl)propyl]-4-[(6-pyridin-4-ylquinazolin-2-yl)amino]benzamide] has an IC50 of 110 nM. O=C(NCCCN1CCOCC1)c1ccc(Nc2ncc3cc(-c4ccncc4)ccc3n2)cc1 [Example 22, N-(3-Morpholin-4-ylpropyl)-4-[(6-pyridin-4-ylquinazolin-2-yl)amino]benzamide] showed an IC50 of 91 nM. With O=C1CCCN1c1ccc(Nc2ncc3cc(-c4ccncc4)ccc3n2)cc1 [Example 54, 1-{4-[(6-Pyridin-4-ylquinazolin-2-yl)amino]phenyl}pyrrolidin-2-one] the IC50 was 120 nM. In the case of COCCNS(=O)(=O)c1ccc(Nc2ncc3cc(-c4ccncc4)ccc3n2)cc1 [Example 113], the IC50 is reported as 100 nM. For COCCNC(=O)c1cccc(Nc2ncc3cc(-c4ccncc4)ccc3n2)n1 [Example 38, N-(2-Methoxyethyl)-6-[(6-pyridin-4-ylquinazolin-2-yl)amino]pyridine-2-carboxamide], the IC50 was 1500 nM. c1cc(-c2ccc3nc(Nc4ccc(N5CCOCC5)nc4)ncc3c2)ccn1 [Example 90, N-(6-Morpholin-4-ylpyridin-3-yl)-6-pyridin-4-ylquinazolin-2-amine] showed an IC50 of 110 nM. In the case of COCCNC(=O)c1ccc(Nc2ncc3cc(-c4ccnc(OC)c4)ccc3n2)cc1 [Example 115], the IC50 is reported as 520 nM. Compound CC(C)(C)OC(=O)N1CCC(CNC(=O)c2ccc(Nc3ncc4cc(-c5ccncc5)ccc4n3)cc2)CC1 [Example 24, tert-Butyl 4-[({4-[(6-pyridin-4-ylquinazolin-2-yl)amino]benzoyl}amino)methyl]piperidine-1-carboxylate] has an IC50 of 520 nM. Compound CN(C)[C@H]1CCN(C(=O)c2ccc(Nc3ncc4cc(-c5ccncc5)ccc4n3)cc2)C1 [Example 118] has an IC50 of 93 nM. Compound O=C(NCC1CCNCC1)c1ccc(Nc2ncc3cc(-c4ccncc4)ccc3n2)cc1 [Example 64, N-(Piperidin-4-ylmethyl)-4-[(6-pyridin-4-ylquinazolin-2-yl)amino]benzamide] has an IC50 of 22 nM. Compound CC(O)CCNC(C)c1ccc(Nc2ncc3cc(-c4ccncc4)ccc3n2)cc1 (centres unmarked) [Example 56, 4-[(1-{4-[(6-Pyridin-4-ylquinazolin-2-yl)amino]phenyl}ethyl)amino]butan-2-ol] has an IC50 of 26 nM. Compound CN(C)C1CCN(C(=O)c2ccc(Nc3ncc4cc(-c5ccncc5)ccc4n3)cc2)C1 (centres unmarked) [Example 117] has an IC50 of 73 nM. For CN(C)C(=O)c1ccc(Nc2ncc3cc(-c4ccncc4)ccc3n2)cc1 [Example 30, N,N-Dimethyl-4-[(6-pyridin-4-ylquinazolin-2-yl)amino]benzamide], the IC50 was 83 nM. With COCCNC(=O)c1ccnc(Nc2ncc3cc(-c4ccncc4)ccc3n2)c1 [Example 37, N-(2-Methoxyethyl)-2-[(6-pyridin-4-ylquinazolin-2-yl)amino]isonicotinamide] the IC50 was 1700 nM. With c1cc(-c2ccc3nc(Nc4ccc5c(c4)OCCO5)ncc3c2)ccn1 [Example 45, N-(2,3-Dihydro-1,4-benzodioxin-6-yl)-6-pyridin-4-ylquinazolin-2-amine] the IC50 was 300 nM. For CN1CCCN(C(=O)c2ccc(Nc3ncc4cc(-c5ccncc5)ccc4n3)cc2)CC1 [Example 116, N-{4-[(4-Methyl-1,4-diazepan-1-yl)carbonyl]phenyl}-6-pyridin-4-ylquinazolin-2-amine], the IC50 was 63 nM.

— patent publication US20100216791A1, “PYRIDINYLQUINAZOLINAMINE DERIVATIVES AND THEIR USE AS B-RAF INHIBITORS” (ASTRAZENECA, priority 2006, published 2010)
